Data taken from PubChem BioAssay (NCI).
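Step 1: Grow cells in 96-well plates. Step 2: Expose to compound for 48 hours at 5 concentrations. Step 3: Interpolate endpoints linearly; if unreached, use highest concentration. At the TGI there is no net growth.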

Experiments:
Assay in all cases: NCI tumour cell line growth inhibition, 48 h
OVCAR-8 ovarian = test system: OVCAR-8 ovarian
IGROV1 ovarian = test system: IGROV1 ovarian
SK-OV-3 ovarian = test system: SK-OV-3 ovarian
KM12 colon = test system: KM12 colon
SW-620 colon = test system: SW-620 colon
EKVX NSCLC = test system: EKVX NSCLC
COLO 205 colon = test system: COLO 205 colon
HCC-2998 colon = test system: HCC-2998 colon
SF-268 CNS = test system: SF-268 CNS
OVCAR-5 ovarian = test system: OVCAR-5 ovarian
M19-MEL melanoma = test system: M19-MEL melanoma
MOLT-4 leukemia = test system: MOLT-4 leukemia
A498 renal = test system: A498 renal
SN12C renal = test system: SN12C renal
U251 CNS = test system: U251 CNS
CCRF-CEM leukemia = test system: CCRF-CEM leukemia
LXFL 529 NSCLC = test system: LXFL 529 NSCLC
SF-295 CNS = test system: SF-295 CNS
SK-MEL-2 melanoma = test system: SK-MEL-2 melanoma
CAKI-1 renal = test system: CAKI-1 renal
SNB-19 CNS = test system: SNB-19 CNS
SF-539 CNS = test system: SF-539 CNS
DLD-1 colon = test system: DLD-1 colon
SK-MEL-28 melanoma = test system: SK-MEL-28 melanoma
OVCAR-4 ovarian = test system: OVCAR-4 ovarian
UO-31 renal = test system: UO-31 renal
KM20L2 colon = test system: KM20L2 colon
A549 NSCLC = test system: A549 NSCLC
MALME-3M melanoma = test system: MALME-3M melanoma
RXF 393 renal = test system: RXF 393 renal
786-0 renal = test system: 786-0 renal
HT29 colon = test system: HT29 colon
DMS 114 small cell lung = test system: DMS 114 small cell lung
HCT-15 colon = test system: HCT-15 colon
M14 melanoma = test system: M14 melanoma
TK-10 renal = test system: TK-10 renal
NCI-H23 lung = test system: NCI-H23 lung
HCT-116 colon = test system: HCT-116 colon
UACC-62 melanoma = test system: UACC-62 melanoma
RPMI-8226 leukemia = test system: RPMI-8226 leukemia
HOP-62 NSCLC = test system: HOP-62 NSCLC
SNB-75 CNS = test system: SNB-75 CNS
NCI-H522 lung = test system: NCI-H522 lung
SR leukemia = test system: SR leukemia
HOP-92 NSCLC = test system: HOP-92 NSCLC
SK-MEL-5 melanoma = test system: SK-MEL-5 melanoma
K-562 leukemia = test system: K-562 leukemia
OVCAR-3 ovarian = test system: OVCAR-3 ovarian
NCI-H460 lung = test system: NCI-H460 lung
RXF-631 renal = test system: RXF-631 renal
HL-60(TB) leukemia = test system: HL-60(TB) leukemia
ACHN renal = test system: ACHN renal
LOX IMVI melanoma = test system: LOX IMVI melanoma
NCI-H226 lung = test system: NCI-H226 lung
HOP-18 NSCLC = test system: HOP-18 NSCLC
UACC-257 melanoma = test system: UACC-257 melanoma
DMS 273 small cell lung = test system: DMS 273 small cell lung

Question: For COC(=O)C1(C)NCCc2c1[nH]c1ccccc21 (stereo not drawn), which TGI (OVCAR-8 ovarian) is on record?
Answer: Its TGI is > 100 µM.

Question: And the TGI (IGROV1 ovarian)?
Answer: Its TGI is > 100 µM.

Question: What about the TGI (SK-OV-3 ovarian) of the same compound?
Answer: The TGI was > 100 µM.

Question: What about the TGI (KM12 colon) of the same compound?
Answer: The TGI was > 100 µM.

Question: And the TGI (SW-620 colon)?
Answer: Its TGI is > 100 µM.

Question: And the TGI (EKVX NSCLC)?
Answer: Its TGI is > 100 µM.

Question: And the TGI (COLO 205 colon)?
Answer: The TGI was > 100 µM.

Question: What about the TGI (HCC-2998 colon) of the same compound?
Answer: Its TGI is > 100 µM.

Question: What about the TGI (SF-268 CNS) of the same compound?
Answer: Its TGI is > 100 µM.

Question: What about the TGI (OVCAR-5 ovarian) of the same compound?
Answer: The TGI was > 100 µM.

Question: What about the TGI (M19-MEL melanoma) of the same compound?
Answer: The TGI was > 100 µM.

Question: What about the TGI (MOLT-4 leukemia) of the same compound?
Answer: The TGI was > 100 µM.

Question: And the TGI (A498 renal)?
Answer: The TGI was > 100 µM.

Question: And the TGI (SN12C renal)?
Answer: Its TGI is > 100 µM.

Question: What about the TGI (U251 CNS) of the same compound?
Answer: Its TGI is > 100 µM.

Question: What about the TGI (CCRF-CEM leukemia) of the same compound?
Answer: Its TGI is > 100 µM.

Question: And the TGI (LXFL 529 NSCLC)?
Answer: Its TGI is > 100 µM.

Question: What about the TGI (SF-295 CNS) of the same compound?
Answer: The TGI was > 100 µM.

Question: What about the TGI (SK-MEL-2 melanoma) of the same compound?
Answer: Its TGI is > 100 µM.

Question: What about the TGI (CAKI-1 renal) of the same compound?
Answer: Its TGI is > 100 µM.

Question: And the TGI (SNB-19 CNS)?
Answer: The TGI was > 100 µM.

Question: And the TGI (SF-539 CNS)?
Answer: The TGI was > 100 µM.

Question: And the TGI (DLD-1 colon)?
Answer: The TGI was > 100 µM.

Question: And the TGI (SK-MEL-28 melanoma)?
Answer: The TGI was > 100 µM.

Question: What about the TGI (OVCAR-4 ovarian) of the same compound?
Answer: The TGI was > 100 µM.

Question: And the TGI (UO-31 renal)?
Answer: Its TGI is > 100 µM.

Question: And the TGI (KM20L2 colon)?
Answer: Its TGI is > 100 µM.

Question: And the TGI (A549 NSCLC)?
Answer: The TGI was > 100 µM.

Question: And the TGI (MALME-3M melanoma)?
Answer: The TGI was > 100 µM.

Question: What about the TGI (RXF 393 renal) of the same compound?
Answer: The TGI was > 100 µM.

Question: And the TGI (786-0 renal)?
Answer: Its TGI is > 100 µM.

Question: And the TGI (HT29 colon)?
Answer: Its TGI is > 100 µM.

Question: And the TGI (DMS 114 small cell lung)?
Answer: Its TGI is > 100 µM.

Question: And the TGI (HCT-15 colon)?
Answer: Its TGI is > 100 µM.

Question: What about the TGI (M14 melanoma) of the same compound?
Answer: The TGI was > 100 µM.

Question: And the TGI (TK-10 renal)?
Answer: The TGI was > 100 µM.

Question: What about the TGI (NCI-H23 lung) of the same compound?
Answer: Its TGI is > 100 µM.

Question: And the TGI (HCT-116 colon)?
Answer: Its TGI is > 100 µM.

Question: What about the TGI (UACC-62 melanoma) of the same compound?
Answer: The TGI was > 100 µM.

Question: What about the TGI (RPMI-8226 leukemia) of the same compound?
Answer: Its TGI is > 100 µM.

Question: And the TGI (HOP-62 NSCLC)?
Answer: The TGI was > 100 µM.

Question: And the TGI (SNB-75 CNS)?
Answer: The TGI was > 100 µM.

Question: What about the TGI (NCI-H522 lung) of the same compound?
Answer: The TGI was > 100 µM.

Question: What about the TGI (SR leukemia) of the same compound?
Answer: Its TGI is > 100 µM.

Question: What about the TGI (HOP-92 NSCLC) of the same compound?
Answer: Its TGI is > 100 µM.

Question: What about the TGI (SK-MEL-5 melanoma) of the same compound?
Answer: The TGI was > 100 µM.

Question: And the TGI (K-562 leukemia)?
Answer: The TGI was > 100 µM.

Question: What about the TGI (OVCAR-3 ovarian) of the same compound?
Answer: Its TGI is > 100 µM.

Question: What does the source list for COc1cc(/C=C2/C(=O)N(C(=O)OCc3ccccc3)C(Cc3cc(OC)c(OC)c(C)c3OC)C(=O)N2Cc2ccccc2)c(OC)c(C)c1OC (stereo not drawn)?
Answer: TGI (OVCAR-8 ovarian): > 100 µM; TGI (IGROV1 ovarian): > 100 µM; TGI (SK-OV-3 ovarian): > 100 µM; TGI (KM12 colon): > 100 µM; TGI (SW-620 colon): > 100 µM; TGI (EKVX NSCLC): > 100 µM; TGI (COLO 205 colon): > 100 µM; TGI (HCC-2998 colon): > 100 µM; TGI (SF-268 CNS): > 100 µM; TGI (OVCAR-5 ovarian): > 100 µM; TGI (NCI-H460 lung): > 100 µM; TGI (M19-MEL melanoma): > 100 µM; TGI (RXF-631 renal): > 100 µM; TGI (MOLT-4 leukemia): > 100 µM; TGI (A498 renal): > 100 µM; TGI (SN12C renal): > 100 µM; TGI (U251 CNS): > 100 µM; TGI (HL-60(TB) leukemia): > 100 µM; TGI (LXFL 529 NSCLC): > 100 µM; TGI (ACHN renal): > 100 µM; TGI (SF-295 CNS): > 100 µM; TGI (SK-MEL-2 melanoma): > 100 µM; TGI (LOX IMVI melanoma): > 100 µM; TGI (NCI-H226 lung): 12.6 µM; TGI (CAKI-1 renal): > 100 µM; TGI (SNB-19 CNS): > 100 µM; TGI (SF-539 CNS): > 100 µM; TGI (DLD-1 colon): > 100 µM; TGI (SK-MEL-28 melanoma): > 100 µM; TGI (OVCAR-4 ovarian): > 100 µM; TGI (UO-31 renal): > 100 µM; TGI (KM20L2 colon): > 100 µM; TGI (A549 NSCLC): > 100 µM; TGI (MALME-3M melanoma): > 100 µM; TGI (RXF 393 renal): > 100 µM; TGI (786-0 renal): > 100 µM; TGI (HT29 colon): > 100 µM; TGI (DMS 114 small cell lung): > 100 µM; TGI (M14 melanoma): > 100 µM; TGI (TK-10 renal): > 100 µM; TGI (NCI-H23 lung): > 100 µM; TGI (HCT-116 colon): > 100 µM; TGI (UACC-62 melanoma): > 100 µM; TGI (RPMI-8226 leukemia): > 100 µM; TGI (HOP-18 NSCLC): > 100 µM; TGI (HOP-62 NSCLC): > 100 µM; TGI (SNB-75 CNS): > 100 µM; TGI (NCI-H522 lung): > 100 µM; TGI (UACC-257 melanoma): > 100 µM; TGI (SR leukemia): > 100 µM; TGI (HOP-92 NSCLC): > 100 µM; TGI (SK-MEL-5 melanoma): 65.9 µM; TGI (DMS 273 small cell lung): > 100 µM; TGI (K-562 leukemia): > 100 µM; TGI (OVCAR-3 ovarian): > 100 µM
